These results are taken from patent US20220274954A1, “SUBSTITUTED N-PHENYL-N-AMINOUARCILS AND SALTS THEREOF AND USE THEREOF AS HERBICIDAL AGENTS” (Bayer Aktiengesellschaft, priority 2019, published 2022).

Common to all, as to format: in vivo
The subject of data set [1] is Alopecurus myosuroides. Nature of the data set: Post-emergence herbicidal action. The protocol: (§1) Seeds of monocotyledonous and dicotyledonous weeds and crop plants were placed in sandy loam in plastic or wood-fiber pots, covered with soil and cultivated in a greenhouse under controlled growth conditions. 2 to 3 weeks after sowing, the test plants were treated at the one-leaf stage. The compounds of the invention, formulated in the form of wettable powders (WP) or as emulsion concentrates (EC), were then sprayed onto the green parts of the plants as aqueous suspension or emulsion with addition of 0.5% additive at a water application rate of […] (converted). After the test plants had been kept in the greenhouse under optimum growth conditions for about 3 weeks, the activity of the preparations was rated visually in comparison to untreated controls. For example, 100% activity=the plants have died, 0% activity=like control plants. Tables A1 to A14 below show the effects of selected compounds of the general formula (I) according to Tables I.1 to I.34 on various harmful plants and at an application rate corresponding to 20 g/ha and less, which were obtained by the experimental procedure mentioned above.

Data set [2] has as its system Viola tricolor. Nature of the data set: Post-emergence herbicidal action. The protocol: as §1
The subject of data set [3] is Avena fatua. Nature of the data set: Post-emergence herbicidal action. The settings on record: application rate 20 g/ha. The procedure: as §1
In data set [4] the test system is Abutilon theophrasti. Nature of the data set: Post-emergence herbicidal action. The procedure:
as §1

The test system of data set [5] is Polygonum convolvulus. Nature of the data set: Post-emergence herbicidal action. As to conditions: Fallopia convolvulus, 504 h, read-out: Polygonum convolvulus (efficacy in %); for pest or weed control at 5 g/ha: application rate 5 g/ha; for pest or weed control at 20 g/ha: application rate 20 g/ha. The protocol:
as §1

Data set [6] relates to Lolium rigidum. Description: Post-emergence herbicidal action. As to conditions: application rate 20 g/ha. The procedure: as §1
For data set [7], the system named is Echinochloa crus-galli. Description: Post-emergence herbicidal action. The procedure: as §1
In data set [8] the test system is Veronica persica. Nature of the data set: Post-emergence herbicidal action. The settings on record: for pest or weed control at 5 g/ha / pest or weed control at 20 g/ha: Veronica persica, 504 h, read-out: Veronica persica (efficacy in %). The procedure: as §1
In data set [9] the test system is Amaranthus retroflexus. Nature of the data set: Post-emergence herbicidal action. The protocol:
as §1

The test system of data set [10] is Setaria viridis. Description: Post-emergence herbicidal action. As to conditions: 504 h, read-out: Setaria viridis (efficacy in %); for pest or weed control at 5 g/ha: application rate 5 g/ha; for pest or weed control at 20 g/ha: application rate 20 g/ha. The protocol:
as §1

Data set [11] has as its system Digitaria sanguinalis. Nature of the data set: Post-emergence herbicidal action. The settings on record: 504 h, read-out: Digitaria sanguinalis (efficacy in %). The procedure:
as §1

For data set [12], the system named is Pharbitis purpurea. Nature of the data set: Post-emergence herbicidal action. The settings on record: for pest or weed control at 5 g/ha / pest or weed control at 20 g/ha: Ipomoea purpurea, 504 h, read-out: Pharbitis purpurea (efficacy in %). The protocol: as §1
The subject of data set [13] is Matricaria inodora. Description: Post-emergence herbicidal action. The procedure:
as §1

The test system of data set [14] is Oryza sativa. Nature of the data set: Post-emergence crop plant compatibility. The protocol:
as §1, with “plants.” for “plants. Tables A1 to A14 below show the effects of selected compounds of the general formula (I) according to Tables I.1 to I.34 on various harmful plants and at an application rate corresponding to 20 g/ha and less, which were obtained by the experimental procedure mentioned above.”
(§2) Here, the observed effects on selected crop plants are stated in comparison to the untreated controls (values in %).

Data set [15] has as its system Triticum aestivum. Description: Post-emergence crop plant compatibility. The procedure:
as §1, with “plants.” for “plants. Tables A1 to A14 below show the effects of selected compounds of the general formula (I) according to Tables I.1 to I.34 on various harmful plants and at an application rate corresponding to 20 g/ha and less, which were obtained by the experimental procedure mentioned above.”
as §2

Data set [16] relates to Zea mays. Nature of the data set: Post-emergence crop plant compatibility. The settings on record: application rate 5 g/ha. The protocol: as §1, with “plants.” for “plants. Tables A1 to A14 below show the effects of selected compounds of the general formula (I) according to Tables I.1 to I.34 on various harmful plants and at an application rate corresponding to 20 g/ha and less, which were obtained by the experimental procedure mentioned above.”
as §2

The test system of data set [17] is Stellaria media. Description: Post-emergence herbicidal action. The procedure: as §1
The test system of data set [18] is Brassica napus. Nature of the data set: Post-emergence crop plant compatibility. The protocol: as §1, with “plants.” for “plants. Tables A1 to A14 below show the effects of selected compounds of the general formula (I) according to Tables I.1 to I.34 on various harmful plants and at an application rate corresponding to 20 g/ha and less, which were obtained by the experimental procedure mentioned above.”
as §2

For data set [19], the system named is Glycine max. Description: Post-emergence crop plant compatibility. The procedure:
as §1, with “plants.” for “plants. Tables A1 to A14 below show the effects of selected compounds of the general formula (I) according to Tables I.1 to I.34 on various harmful plants and at an application rate corresponding to 20 g/ha and less, which were obtained by the experimental procedure mentioned above.”
as §2

Where [20] appears, read: Viola tricolor, 504 h, application rate 5 g/ha, read-out: Viola tricolor (efficacy in %).
Where [21] appears, read: Abutilon theophrasti, 504 h, application rate 20 g/ha, read-out: Abutilon theophrasti (efficacy in %).
Setting [22] is: Echinochloa crus-galli, 504 h, application rate 20 g/ha, read-out: Echinochloa crus-galli (efficacy in %).
[23] abbreviates: Amaranthus retroflexus, 504 h, application rate 5 g/ha, read-out: Amaranthus retroflexus (efficacy in %).

On to `CCOCCOC(=O)COc1ncccc1Sc1cc(-n2c(=O)cc(C(F)(F)F)n(N)c2=O)c(F)cc1Cl` [I.1-2, 2-Ethoxyethyl {[3-({5-[3-amino-2,6-dioxo-4-(trifluoromethyl)-3,6-dihydropyrimidin-1(2H)-yl]-2-chloro-4-fluorophenyl}sulfanyl)pyridin-2-yl]oxy}acetate], for which, in data set [1] (application rate 20 g/ha), the “Alopecurus myosuroides (efficacy in %)” value worked out at 100%. The pest or weed control at 5 g/ha in [2] (setting [20]) worked out at 100%; in [4] (Abutilon theophrasti, 504 h, application rate 5 g/ha, read-out: Abutilon theophrasti (efficacy in %)), 100%; in data set [5], 100%; in data set [7] (Echinochloa crus-galli, 504 h, application rate 5 g/ha, read-out: Echinochloa crus-galli (efficacy in %)), 90%; in [8] (application rate 5 g/ha), 100%; in data set [9] (setting [23]), 100%. The pest or weed control at 5 g/ha was 100% in [10]; 100% in data set [11] (application rate 5 g/ha); 100% in data set [12] (application rate 5 g/ha); 100% in data set [13] (Tripleurospermum inodorum, 504 h, application rate 5 g/ha, read-out: Matricaria inodora (efficacy in %)). In addition, the pest or weed control at 20 g/ha in data set [2] (Viola tricolor, 504 h, application rate 20 g/ha, read-out: Viola tricolor (efficacy in %)) is 100%; in data set [4] (setting [21]), 100%; in data set [5], 100%; in data set [7] (setting [22]), 100%; in [8] (application rate 20 g/ha), 100%; in data set [9] (Amaranthus retroflexus, 504 h, application rate 20 g/ha, read-out: Amaranthus retroflexus (efficacy in %)), 100%. In addition, the pest or weed control at 20 g/ha stood at 100% in data set [10]; 100% in data set [11] (application rate 20 g/ha); 100% in [12] (application rate 20 g/ha); 100% in data set [13] (Tripleurospermum inodorum, 504 h, application rate 20 g/ha, read-out: Matricaria inodora (efficacy in %)). The “Avena fatua (efficacy in %)” value in [3] is given as 80%. Besides, in data set [6], the “Lolium rigidum (efficacy in %)” value is 80%. The “Oryza sativa (efficacy in %)” value in data set [14] (application rate 1.25 g/ha) is 0%; in [14] (application rate 5 g/ha), 10%. For the same molecule, the “Triticum aestivum (efficacy in %)” value in data set [15] (application rate 1.25 g/ha) is 0%.

Turning to `C=CCOC(=O)COc1ncccc1Sc1cc(-n2c(=O)cc(C(F)(F)F)n(N)c2=O)c(F)cc1Cl` [I.1-471], the results for the “Alopecurus myosuroides (efficacy in %)” value in data set [1] (application rate 5 g/ha) and in [1] (application rate 20 g/ha) were 80% and 100%, respectively. Besides, the “Viola tricolor (efficacy in %)” value in data set [2] (application rate 5 g/ha) and in data set [2] (application rate 20 g/ha) was 100% each time. The “Avena fatua (efficacy in %)” value in data set [3] was determined as 80%. Also, the “Abutilon theophrasti (efficacy in %)” value in data set [4] (application rate 5 g/ha) and in data set [4] (application rate 20 g/ha) was 100% in each case. In addition, the “Lolium rigidum (efficacy in %)” value in data set [6] worked out at 80%. For the same molecule, the “Echinochloa crus-galli (efficacy in %)” value is on record as 90% in data set [7] (application rate 5 g/ha) and 100% in data set [7] (application rate 20 g/ha). Further, the “Veronica persica (efficacy in %)” value in [8] (application rate 5 g/ha) and in data set [8] (application rate 20 g/ha) was 100% in each case. The “Amaranthus retroflexus (efficacy in %)” value in data set [9] (application rate 5 g/ha) and in data set [9] (application rate 20 g/ha) was 100% each time. Further, the “Pharbitis purpurea (efficacy in %)” value in [12] (application rate 5 g/ha) and in data set [12] (application rate 20 g/ha) was 100% throughout. Also, the “Matricaria inodora (efficacy in %)” value in [13] (application rate 5 g/ha) and in [13] (application rate 20 g/ha) was 100% throughout. For the same molecule, the “Oryza sativa (efficacy in %)” value in data set [14] (application rate 1.25 g/ha) worked out at 0%. For the same molecule, in data set [16], the “Zea mays (efficacy in %)” value was determined as 20%. Moreover, the figures for the “Triticum aestivum (efficacy in %)” value in [15] (application rate 1.25 g/ha) and in data set [15] (application rate 5 g/ha) were 10% and 20%, respectively.

Regarding `Nn1c(C(F)(F)F)cc(=O)n(-c2cc(Sc3cccnc3OCC(=O)O)c(Cl)cc2F)c1=O` [I.1-481], the “Alopecurus myosuroides (efficacy in %)” value in data set [1] (application rate 5 g/ha) and in data set [1] (application rate 20 g/ha) was 100% in each case. For the same molecule, the “Viola tricolor (efficacy in %)” value in [2] (application rate 5 g/ha) and in data set [2] (application rate 20 g/ha) was 100% in each case. Moreover, the “Abutilon theophrasti (efficacy in %)” value in data set [4] (application rate 5 g/ha) and in data set [4] (application rate 20 g/ha) was 100% each time. Moreover, the “Lolium rigidum (efficacy in %)” value in data set [6] is given as 80%. Further, the “Echinochloa crus-galli (efficacy in %)” value amounted to 90% in data set [7] (application rate 5 g/ha) and 100% in data set [7] (application rate 20 g/ha). The “Veronica persica (efficacy in %)” value in data set [8] (application rate 5 g/ha) and in data set [8] (application rate 20 g/ha) was 100% in each case. The “Amaranthus retroflexus (efficacy in %)” value in [9] (application rate 5 g/ha) and in data set [9] (application rate 20 g/ha) was 100% each time. The entries for the “Pharbitis purpurea (efficacy in %)” value in [12] (application rate 5 g/ha) and in data set [12] (application rate 20 g/ha) were 80% and 100%, respectively. For the same molecule, the “Matricaria inodora (efficacy in %)” value in [13] (application rate 5 g/ha) amounted to 90%; in data set [13] (application rate 20 g/ha), 100%. Besides, the “Oryza sativa (efficacy in %)” value in data set [14] (application rate 1.25 g/ha) is given as 10%; in data set [14] (application rate 5 g/ha) it was 20%. Besides, in [15] (application rate 1.25 g/ha), the “Triticum aestivum (efficacy in %)” value came out at 20%.

On to `Nn1c(C(F)(F)F)cc(=O)n(-c2cc(Sc3cccnc3OCCC(=O)OCc3ccccc3)c(Cl)cc2F)c1=O` [I.5-457, Benzyl 3-{[3-({5-[3-amino-2,6-dioxo-4-(trifluoromethyl)-3,6-dihydropyrimidin-1(2H)-yl]-2-chloro-4-fluorophenyl}sulfanyl)pyridin-2-yl]oxy}propanoate], for which the pest or weed control at 5 g/ha came out at 100% in [2] (setting [20]); 90% in [5]; 100% in [8] (application rate 5 g/ha); 100% in data set [9] (setting [23]); 100% in data set [10]; 90% in [12] (application rate 5 g/ha). Also, the pest or weed control at 20 g/ha in data set [4] (setting [21]) came out at 80%; in data set [5] it was 100%; in data set [7] (setting [22]), 80%; in [8] (application rate 20 g/ha), 100%; in [10], 100%; in data set [12] (application rate 20 g/ha), 90%. Also, the “Stellaria media (efficacy in %)” value in [17] (application rate 5 g/ha) is listed as 80%; in data set [17] (application rate 20 g/ha), 100%. Also, the “Oryza sativa (efficacy in %)” value amounted to 0% in data set [14] (application rate 1.25 g/ha) and 10% in data set [14] (application rate 5 g/ha). For the same molecule, the “Brassica napus (efficacy in %)” value in data set [18] (application rate 1.25 g/ha) was determined as 0%; in data set [18] (application rate 5 g/ha) it was 10%. In addition, the “Glycine max (efficacy in %)” value in data set [19] (application rate 1.25 g/ha) was found to be 0%; in data set [19] (application rate 5 g/ha), 10%. Also, in data set [16], the “Zea mays (efficacy in %)” value worked out at 20%. Besides, the “Triticum aestivum (efficacy in %)” value in data set [15] (application rate 5 g/ha) is 20%.
